# Test results taken from PubChem BioAssay (NCI).
#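 Results reflect a 48-hour exposure of cells in 96-well plates to compound at five concentrations. Here, GI50 denotes the concentration required for 50% inhibition of growth. TGI: concentration producing complete growth inhibition.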
# Assays:
# Test in all cases: NCI-60 cell line screen, 48 h
# [1] = tested on: 786-0 renal
# [2] = tested on: A549 NSCLC
# [3] = tested on: ACHN renal
# [4] = tested on: BT-549 breast
# [5] = tested on: CAKI-1 renal
# [6] = tested on: CCRF-CEM leukemia
# [7] = tested on: COLO 205 colon
# [8] = tested on: DU-145 prostate
# [9] = tested on: EKVX NSCLC
# [10] = tested on: HCC-2998 colon
# [11] = tested on: HCT-116 colon
# [12] = tested on: HCT-15 colon
# [13] = tested on: HOP-62 NSCLC
# [14] = tested on: HOP-92 NSCLC
# [15] = tested on: HS 578T breast
# [16] = tested on: HT29 colon
# [17] = tested on: IGROV1 ovarian
# [18] = tested on: K-562 leukemia
# [19] = tested on: KM12 colon
# [20] = tested on: LOX IMVI melanoma
# [21] = tested on: M14 melanoma
# [22] = tested on: MALME-3M melanoma
# [23] = tested on: MCF7 breast
# [24] = tested on: MDA-MB-231 breast
# [25] = tested on: MDA-MB-435
# [26] = tested on: MOLT-4 leukemia
# [27] = tested on: NCI-H226 lung
# [28] = tested on: NCI-H23 lung
# [29] = tested on: NCI-H460 lung
# [30] = tested on: NCI-H522 lung
# [31] = tested on: NCI/ADR-RES ovarian
# [32] = tested on: OVCAR-3 ovarian
# [33] = tested on: OVCAR-4 ovarian
# [34] = tested on: OVCAR-5 ovarian
# [35] = tested on: OVCAR-8 ovarian
# [36] = tested on: PC-3 prostate
# [37] = tested on: RPMI-8226 leukemia
# [38] = tested on: RXF 393 renal
# [39] = tested on: SF-268 CNS
# [40] = tested on: SF-295 CNS
# [41] = tested on: SF-539 CNS
# [42] = tested on: SK-MEL-2 melanoma
# [43] = tested on: SK-MEL-28 melanoma
# [44] = tested on: SK-MEL-5 melanoma
# [45] = tested on: SK-OV-3 ovarian
# [46] = tested on: SN12C renal
# [47] = tested on: SNB-19 CNS
# [48] = tested on: SNB-75 CNS
# [49] = tested on: SW-620 colon
# [50] = tested on: T-47D breast
# [51] = tested on: TK-10 renal
# [52] = tested on: U251 CNS
# [53] = tested on: UACC-257 melanoma
# [54] = tested on: UACC-62 melanoma
# [55] = tested on: UO-31 renal
smiles,measurement,setting,value
COc1cc2c(cc1OCCCCOc1cc3c(cc1OC)C(=O)N1CCC[C@H]1CN3)N=C[C@@H]1CCCN1C2=O,GI50,[1],2940 nM
same,TGI,[1],> 100000 nM
same,GI50,[2],9210 nM
same,TGI,[2],> 100000 nM
same,GI50,[3],2620 nM
same,TGI,[3],29000 nM
same,GI50,[4],357 nM
same,TGI,[4],5750 nM
same,GI50,[5],344 nM
same,GI50,[6],243 nM
same,GI50,[7],1300 nM
same,TGI,[7],5330 nM
same,GI50,[8],2460 nM
same,TGI,[8],> 100000 nM
same,GI50,[9],5130 nM
same,TGI,[9],76500 nM
same,GI50,[10],2000 nM
same,TGI,[10],5640 nM
same,GI50,[11],2370 nM
same,TGI,[11],> 100000 nM
same,GI50,[12],25200 nM
same,TGI,[12],> 93300 nM
same,GI50,[13],3360 nM
same,TGI,[13],> 100000 nM
same,GI50,[14],366 nM
same,TGI,[14],3300 nM
same,GI50,[15],823 nM
same,TGI,[15],2630 nM
same,GI50,[16],2370 nM
same,TGI,[16],> 23200 nM
same,GI50,[17],2420 nM
same,TGI,[17],> 27000 nM
same,GI50,[18],174 nM
same,TGI,[18],> 37900 nM
same,GI50,[19],1970 nM
same,TGI,[19],86200 nM
same,GI50,[20],1070 nM
same,TGI,[20],> 32500 nM
same,GI50,[21],2370 nM
same,TGI,[21],7190 nM
same,GI50,[22],1470 nM
same,TGI,[22],4100 nM
same,GI50,[23],346 nM
same,TGI,[23],1760 nM
same,GI50,[24],1050 nM
same,TGI,[24],5260 nM
same,GI50,[25],464 nM
same,TGI,[25],10400 nM
same,GI50,[26],282 nM
same,TGI,[26],> 100000 nM
same,GI50,[27],1940 nM
same,TGI,[27],4490 nM
same,GI50,[28],2220 nM
same,TGI,[28],5800 nM
same,GI50,[29],2920 nM
same,TGI,[29],> 100000 nM
same,GI50,[30],72 nM
same,TGI,[30],386 nM
same,GI50,[31],45000 nM
same,TGI,[31],> 100000 nM
same,GI50,[32],2050 nM
same,TGI,[32],6380 nM
same,GI50,[33],4610 nM
same,TGI,[33],> 100000 nM
same,GI50,[34],3090 nM
same,TGI,[34],> 28700 nM
same,GI50,[35],3370 nM
same,TGI,[35],> 33100 nM
same,GI50,[36],2020 nM
same,TGI,[36],97900 nM
same,GI50,[37],575 nM
same,TGI,[37],4840 nM
same,GI50,[38],290 nM
same,TGI,[38],1450 nM
same,GI50,[39],344 nM
same,TGI,[39],4950 nM
same,TGI,[40],1200 nM
same,GI50,[41],419 nM
same,TGI,[41],2890 nM
same,GI50,[42],826 nM
same,TGI,[42],> 100000 nM
same,GI50,[43],2860 nM
same,TGI,[43],11800 nM
same,GI50,[44],463 nM
same,TGI,[44],1620 nM
same,GI50,[45],7060 nM
same,TGI,[45],> 100000 nM
same,GI50,[46],2290 nM
same,TGI,[46],18200 nM
same,GI50,[47],3160 nM
same,TGI,[47],> 100000 nM
same,GI50,[48],3580 nM
same,TGI,[48],16900 nM
same,GI50,[49],931 nM
same,TGI,[49],> 22900 nM
same,GI50,[50],512 nM
same,TGI,[50],> 100000 nM
same,GI50,[51],1640 nM
same,TGI,[51],8380 nM
same,GI50,[52],392 nM
same,TGI,[52],> 100000 nM
same,GI50,[53],5640 nM
same,TGI,[53],> 100000 nM
same,GI50,[54],1300 nM
same,TGI,[54],3030 nM
same,GI50,[55],2890 nM
same,TGI,[55],> 23900 nM
